{
  "source": "patent US10070660B2",
  "about": "“Pet food palatability with antimicrobial properties based on organic acids” (KEMIN INDUSTRIES, INC., priority 2012, dated 2018)",
  "key": {"cats": {"test_system": "cats", "test": "Cat palatability, two-pan method (intake ratio)", "assay_type": "in vivo", "settings": "for IR-A: Ration B incumbent; for IR: vs name brand cat food"}, "[1]": {"test": "pH of fumaric acid-TSB solutions", "assay_type": "physicochemical", "method": "A 0.20% stock solution of fumaric acid was made by dissolving 0.100 g (w/v) fumaric acid in 50 ml sterile deionized water in a flask. The 0.20% stock was diluted 1:2 in sterile deionized water to obtain a 0.10% fumaric acid solution, which was then diluted 1:2 to obtain a 0.05% fumaric acid solution. Each fumaric acid stock solution (0.20%, 0.10% and 0.05%) was further diluted 1:2 in TSB (pH 4.9) to yield fumaric acid-TSB solutions of 0.100%, 0.050% and 0.025%. The pH of each fumaric-TSB solution was measured (Table 1). One hundred μl of each fumaric-TSB solution was added to triplicate wells containing 100 μl standardized inoculum. One hundred μl of untreated (0% fumaric) TSB (pH 4.9) was added to triplicate wells containing 100 μl standardized inoculum as a control. The microplate was placed in a Versamax Microplate Reader (Molecular Devices) (37° C.) with wavelength set to 600 nm. The optical density (OD600) was read every 2 hours for 48 hours."}, "[2]": {"test_system": "Salmonella (five Salmonella enterica serovars)", "test": "Cat kibble challenge with dried five strain Salmonella cocktail inoculum", "assay_type": "cell-based", "method": "(§1) One ml of each Salmonella culture was separately inoculated into a beaker containing tempered (ambient), sterilized MBM which was then incubated at 37° C. for 48 hours. Inoculated MBM was dispensed (approx. 200 g) into sterile 250 ml centrifuge bottles and centrifuged at 5,000 rpm for 10 minutes. The supernatant was decanted and autoclaved for disposal. The pellets were suspended in 10 ml TSB-20% glycerol. Suspensions (approximately 150-160 g) were transferred to sterilized 250 ml polycarbonate straight side wide mouth jars with lids (Nalgene, Thermo Scientific). Jars containing MBM-Salmonella suspensions were immediately frozen at −70° C. for 1 hour. Frozen MBM-Salmonella suspensions were lyophilized using a FreeZone-1 Liter benchtop freeze dry system (Labconco) (approx. 96 hours, −50° C.). Each lyophilized Salmonella culture was pulverized to a fine powder using a sterile mortar and pestle. Twenty g of each of the five lyophilized Salmonella cultures was combined in a sterile wide mouth glass jar to make the dried Salmonella cocktail inoculum. […] Solidified plates were incubated inverted at 37° C. for 16-18 hours. Visible colonies were counted and colony forming units per gram were calculated (CFU/g). […] Kibble and inoculum were mixed together for five minutes by hand in a plastic zip top bag, and allowed to rest for 1 hour prior to sampling. Coated, un-inoculated kibble was also included in the study and tested for Salmonella (direct plating and FDA BAM), total aerobic bacteria, mold and yeast counts, pH, percent moisture, and water activity. For each analysis time point challenged kibble was sampled in triplicate. Kibbles were stored at ambient temperature.\n(§2) Challenged kibble samples bags were mixed thoroughly, then 5.00 g (±0.01) was aseptically weighed into a sterile plastic bag and diluted with 45 ml sterile Phosphate Buffer (Butterfield) diluent (BPB) containing (g/l) KH2PO4 34.0, pH adjusted to 7.2 with 1N sodium hydroxide and homogenized using a Stomacher (Seward Stomacher 80) for 1 minute and serially diluted in BPB for plating. The plates are poured with tempered (45° C.) XLD agar. After solidification, plates were inverted and placed in an incubator (37° C.). Colonies were counted and CFU/g was calculated. The counts for each triplicate sample were averaged and expressed as log CFU/g. Those samples of which were below the detection limit of <10 CFU/g were assigned 0 log CFU/g for the purpose of statistical analysis. Analysis of Variance using the LSD separation of means method was performed to analyze the data using StatGraphics software (StatPoint Technologies, Inc. Warrenton, Va.).\nAll procedures for the Phase 3 kibble challenge were conducted as described for Phase 2."}, "[3]": {"test_system": "Salmonella (five Salmonella enterica serovars)", "test": "Dog kibble challenge with dried five strain Salmonella cocktail inoculum", "assay_type": "cell-based", "method": "as §1, §2\nDry dog palatants were formulated with fumaric acid or SBS to deliver 0.5% acid to the surface of the kibble. The effect of each acid on Salmonella challenged on the surface of dog kibble was examined. Dog kibbles were challenged with dried five strain Salmonella cocktail inoculum.\nThe effect of each acid on Salmonella challenged on the surface of dog kibble was examined. Dog kibbles were challenged with dried five strain Salmonella cocktail inoculum prep."}},
  "note": "“Also recorded” adds a separate entry of the source.",
  "data": [
    {"molecule": "O=C(O)/C=C/C(=O)O", "note": "[Fumaric Acid, fumaric acid]", "values": [
      {"measurement": "IR-A", "setting": "cats; Confirmation trials, Prototype 89-87, 0.25% acid on kibble (so in the source)", "value": "0.65 (p ≤ 0.05)"},
      {"measurement": "palatability (in words)", "setting": "cats; Example 4 cat trials, formula 89-87 or 89-145 vs incumbent dry palatant", "value": "parity palatability score; also recorded: scores improved"},
      {"measurement": "IR-A", "setting": "cats; First set, Prototype 89-87 at 2.5%, 0.5% total acid on kibble", "value": "0.46 (N.S.)"},
      {"measurement": "IR", "setting": "cats; Trial 412 (so in the source), 20% fumaric acid in formula (80 mesh), 0.30% on kibble", "value": 0.77},
      {"measurement": "IR", "setting": "cats; Trial 426, 14% fumaric acid in formula (30 mesh sieve), 0.21% on kibble", "value": 0.57},
      {"measurement": "IR", "setting": "cats; Trial 465, 14% fumaric acid in formula (80 mesh sieve), 0.21% on kibble", "value": 0.62},
      {"measurement": "IR", "setting": "cats; Trial 481, 27% fumaric acid in formula (80 mesh), ~0.41% on kibble", "value": 0.74},
      {"measurement": "pH in TSB", "setting": "[1]; 0.025% fumaric acid", "value": 4.67},
      {"measurement": "pH in TSB", "setting": "[1]; 0.050% fumaric acid", "value": 4.42},
      {"measurement": "pH in TSB", "setting": "[1]; 0.100% fumaric acid", "value": 4.06},
      {"measurement": "Salmonella", "setting": "[2]; Table 4, 0.21% on cat kibble, day 0", "value": "2.79 ± 0.35^Aa log CFU/g"},
      {"measurement": "Salmonella", "setting": "[2]; Table 4, 0.21% on cat kibble, day 1", "value": "2.85 ± 0.07^Aa log CFU/g"},
      {"measurement": "Salmonella", "setting": "[2]; Table 4, 0.21% on cat kibble, day 8", "value": "2.02 ± 0.13^Bab log CFU/g"},
      {"measurement": "Salmonella", "setting": "[2]; Table 4, 0.21% on cat kibble, day 14", "value": "1.44 ± 0.24^Bbc log CFU/g"},
      {"measurement": "Salmonella", "setting": "[2]; Table 4, 0.21% on cat kibble, day 22", "value": "0.77 ± 0.39^Bc log CFU/g"},
      {"measurement": "Salmonella", "setting": "[2]; Table 5, 0.30% on cat kibble, day 0", "value": "2.44 ± 0.21^Aa log CFU/g"},
      {"measurement": "Salmonella", "setting": "[2]; Table 5, 0.30% on cat kibble, day 1", "value": "1.26 ± 0.14^Bab log CFU/g"},
      {"measurement": "Salmonella", "setting": "[2]; Table 5, 0.30% on cat kibble, day 5", "value": "0.57 ± 0.57^Bb log CFU/g"},
      {"measurement": "Salmonella", "setting": "[2]; Table 5, 0.41% on cat kibble, day 0", "value": "1.46 ± 0.09^Ba log CFU/g"},
      {"measurement": "Salmonella", "setting": "[2]; Table 5, 0.41% on cat kibble, day 1, below detection limit assigned 0", "value": "0.0 ± 0.0^Cb* log CFU/g"},
      {"measurement": "Salmonella", "setting": "[2]; Table 5, 0.41% on cat kibble, day 5, below detection limit assigned 0", "value": "0.0 ± 0.0^Bb* log CFU/g"},
      {"measurement": "Salmonella", "setting": "[2]; Table 12, 0.50% total acid on cat kibble, day 0", "value": "3.38 ± 0.02^Ba log CFU/g"},
      {"measurement": "Salmonella", "setting": "[2]; Table 12, 0.50% total acid on cat kibble, day 1", "value": "1.98 ± 0.02^Bb log CFU/g"},
      {"measurement": "Salmonella", "setting": "[2]; Table 12, 0.50% total acid on cat kibble, day 5", "value": "1.10 ± 0.10^Bc log CFU/g"},
      {"measurement": "Salmonella", "setting": "[2]; Table 12, 0.50% total acid on cat kibble, day 7", "value": "0.33 ± 0.33^Bd log CFU/g"},
      {"measurement": "Salmonella", "setting": "[2]; Table 12, 0.50% total acid on cat kibble, day 14", "value": "0.33 ± 0.33^Bd log CFU/g"},
      {"measurement": "Salmonella", "setting": "[2]; Table 12, 0.50% total acid on cat kibble, day 21", "value": "0.00 ± 0.00^Bd log CFU/g"},
      {"measurement": "Salmonella counts on challenged cat kibble vs control palatant (in words)", "setting": "[2]; cat kibble challenge", "value": "significant efficacy against Salmonella spp; also recorded: significantly lower Salmonella counts; also recorded: demonstrated antimicrobial activity; also recorded: significant reduction in Salmonella count; also recorded: dose response"},
      {"measurement": "Salmonella counts", "setting": "[2]; highest level of fumaric acid on cat kibble, after 1 day, detection limit", "value": "< 10", "unit": "CFU/g"},
      {"measurement": "Salmonella", "setting": "[3]; Table 15, 0.50% on dog kibble, day 0", "value": "1.98 ± 0.14^Ca log CFU/g"},
      {"measurement": "Salmonella", "setting": "[3]; Table 15, 0.50% on dog kibble, day 1", "value": "1.10 ± 0.10^Cb log CFU/g"},
      {"measurement": "Salmonella", "setting": "[3]; Table 15, 0.50% on dog kibble, day 3", "value": "0.77 ± 0.39^Abc log CFU/g"},
      {"measurement": "Salmonella", "setting": "[3]; Table 15, 0.50% on dog kibble, day 7", "value": "0.33 ± 0.33^Bcd log CFU/g"},
      {"measurement": "Salmonella", "setting": "[3]; Table 15, 0.50% on dog kibble, day 9", "value": "0.33 ± 0.33^Bcd log CFU/g"},
      {"measurement": "Salmonella", "setting": "[3]; Table 15, 0.50% on dog kibble, day 14", "value": "0.00 ± 0.00^Bd log CFU/g"},
      {"measurement": "Salmonella", "setting": "[3]; Table 15, 0.50% on dog kibble, day 21", "value": "0.00 ± 0.00^Bd log CFU/g"},
      {"measurement": "Salmonella", "setting": "[3]; Table 17, total of 0.5% acid on dog kibble, day 0", "value": "1.99 ± 0.22^CDa log CFU/g"},
      {"measurement": "Salmonella", "setting": "[3]; Table 17, total of 0.5% acid on dog kibble, day 1", "value": "0.43 ± 0.43^Bb log CFU/g"},
      {"measurement": "Salmonella", "setting": "[3]; Table 17, total of 0.5% acid on dog kibble, day 6", "value": "0.00 ± 0.00^Bb log CFU/g"},
      {"measurement": "Salmonella", "setting": "[3]; Table 17, total of 0.5% acid on dog kibble, day 14", "value": "0.00 ± 0.00^Bb log CFU/g"},
      {"measurement": "Salmonella", "setting": "[3]; Table 17, total of 0.5% acid on dog kibble, day 21", "value": "0.00 ± 0.00^Bb log CFU/g"},
      {"measurement": "Salmonella counts on challenged dog kibble vs control palatant (in words)", "setting": "[3]; dog kibble challenge", "value": "significantly lower Salmonella counts than the control and SBS formula"}
    ]}
  ]
}
